The values below come from paper PMC11968987 (Nature Communications, 2025).

The experiment concerns the target SAT1 (flag-tagged recombinant SAT1) (Homo sapiens, UniProt P21673). Put plainly: DTNB-coupled SAT1 activity assay, Lineweaver-Burk plot. It counts as biochemical. The conditions noted are these: co-substrate histone H3 (200 ng); pH 8.0, 35 °C; no ginkgolide B.

Chain of SAT1 (flag-tagged recombinant SAT1) (P21673 whole entry): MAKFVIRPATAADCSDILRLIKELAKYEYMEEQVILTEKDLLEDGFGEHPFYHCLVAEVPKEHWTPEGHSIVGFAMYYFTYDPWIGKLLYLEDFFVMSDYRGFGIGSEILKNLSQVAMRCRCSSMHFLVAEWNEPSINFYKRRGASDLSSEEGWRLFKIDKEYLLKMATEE

With `CC(=O)SCCNC(=O)CCNC(=O)[C@H](O)C(C)(C)COP(=O)(O)OP(=O)(O)OC[C@H]1O[C@@H](n2cnc3c(N)ncnc32)[C@H](O)[C@@H]1OP(=O)(O)O` [acetyl-CoA], the km entry was “Both the Vmax and km values decreased with the addition of GB”.
